Read-outs that look alike come from different tables or passages of the source. Where a SMILES comes first, the peptide text is derived from it. [ ]: non-standard residue; d: D form. The star is where a group is joined. Fmoc = O=C(OCC1c2ccccc2-c2ccccc21)*; 12Ado = NCCCCCCCCCCCC(=O)O; StBu = CC(C)(C)S*
Test: MTT assay, cytotoxicity of the peptide
Format: cell-based
Conditions: read-out: cell viability
Text: MTT assay was applied to evaluate the cytotoxicity effect of the peptide on HeLa, MCF-7, SK-N-MC, HEK293 and RAW264.7 cells (FIG. 12).

Measured: viability

CC(C)[C@H](NC(=O)[C@H](CCCCN)NC(=O)[C@H](CCCCN)NC(=O)[C@H](CCCCN)NC(=O)[C@H](CCCCN)NC(=O)[C@H](CCCCN)NC(=O)[C@@H]1CCCN1C(=O)OCC1c2ccccc2-c2ccccc21)C(=O)NCC(=O)N[C@@H](Cc1c[nH]cn1)C(=O)N[C@@H](Cc1c[nH]cn1)C(=O)N[C@@H](Cc1c[nH]cn1)C(=O)N[C@@H](Cc1c[nH]cn1)C(=O)NCCCCCCCCCCCC(=O)N[C@@H](CSSC(C)(C)C)C(=O)N[C@@H](Cc1c[nH]cn1)C(=O)N[C@@H](Cc1c[nH]cn1)C(=O)N[C@@H](CSSC(C)(C)C)C(=O)N[C@@H](CSSC(C)(C)C)C(=O)N[C@@H](Cc1c[nH]cn1)C(=O)N[C@@H](Cc1c[nH]cn1)C(=O)N[C@@H](CSSC(C)(C)C)C(=O)NCC(=O)N[C@@H](CO)C(=O)N1CCC[C@H]1C(=O)N[C@@H](Cc1c[nH]cn1)C(=O)N[C@@H](Cc1c[nH]cn1)C(=O)N[C@@H](CC(=O)O)C(=O)O [peptide_13, Fmoc-PKKKKKVG-HHHH (SEQ ID NO: 31)-C12-CstBuHHCstBuCstBuHHCstBuGSPHHD (SEQ ID NO: 39)] (Fmoc-PKKKKKVGHHHH[12Ado]C(StBu)HHC(StBu)C(StBu)HHC(StBu)GSPHHD-OH; C-terminus assumed)
> 80%: human, HEK293 cells, peptide concentration up to 4 μM | human, HeLa cells, peptide concentration up to 8 μM | human, MCF-7 cells, peptide concentration up to 8 μM | human, SK-N-MC cells, peptide concentration up to 4 μM | mouse, RAW264.7 cells, peptide concentration up to 4 μM

From US20250297035A1, “A PEPTIDE AND THE SELECTION METHOD THEREOF” (THE HONG KONG UNIVERSITY OF SCIENCE AND TECHNOLOGY, priority 2021, published 2025)
